US20080293815A1, “HCA FOR IMPROVED HDL SERUM LIPIDS PROFILE” (Glykon Technologies Group, LLC, priority 2006, published 2008)
Where “and” joins values, the source holds several entries; their conditions need not be identical. Equal entries are not always repeated.

How the values were obtained:
[1] = system: male rats of Wistar strain; test: Animal trial: serum total cholesterol, HDL and LDL in rats on cholesterol diet; type: in vivo, rat; settings: for total cholesterol reduction (lowering) in comparison to the starting condition: 2 weeks; for HDL, Average / LDL, Average / Total cholesterol, Average: group average; for HDL / LDL / Total cholesterol: individual rat
Protocol: (§1) During the adaptation period, health was monitored by weighing and observing the animals. […] After 10 days of cholesterol-containing feed, all animals were in a state of hypercholesterolemia. One group served as the control, whereas group II, III, and IV received 0.5%, 1%, and 2% of KHCA (produced via the method of Example 2), respectively, in addition to the cholesterol diet. The salt solutions were given orally in 2 ml water daily. Group I received 2 ml of distilled water per 200 g body weight; group II received 1.03 mg KHCA in 2 ml water per 200 body weight; group III 2.06 mg; and group IV 4.12 mg. These treatments were continued for 2 weeks.
The animals were fasted for 12 hours prior to blood withdrawal. Rats were weighed and the 3-4 ml blood was obtained by amputating 2-3 cm of the tail. The blood was collected, let stand at room temperature for 30 minutes, and then centrifuged for 10-15 minutes. The serum was separated and refrigerated at 4° C. until ready for cholesterol analysis. Cholesterol level of the serum was analyzed using diagnostic kit (Boehringer Mannheim). Total cholesterol, LDL, and HDL were determined through spectrophotometric instrument (Hitachi). These are protocols frequently used in clinical laboratories.
Student's T-test was used to evaluate whether there was a difference between the control and each of the treated groups by comparing the data before and after the treatment. One-way variance analysis was performed to see if there was a statistically significant difference among the groups.

[2] = Animal trial: body weight, feed and water consumption, feces; type: in vivo, rat; settings: for Body weight: group average
Protocol: as §1

rats = settings: physiologic doses; cited from earlier work
[3] = animal model, U.S. Pat. No. 6,221,901; cited from earlier work
[4] = 0.5% KHCA (1.03 mg/day oral, 2 weeks), End Day 24
[5] = 0.5% KHCA group, Hypercholesterolemia Day 10 (before treatment)
[6] = 0.5% KHCA group, Start (before diet and treatment)
[7] = 1.0% KHCA (2.06 mg/day oral, 2 weeks), End Day 24
[8] = 1.0% KHCA group, Hypercholesterolemia Day 10 (before treatment)
[9] = 1.0% KHCA group, Start (before diet and treatment)
[10] = 2.0% KHCA (4.12 mg/day oral, 2 weeks), End Day 24
[11] = 2.0% KHCA group, Hypercholesterolemia Day 10 (before treatment)
[12] = 2.0% KHCA group, Start (before diet and treatment)
[13] = 2 ml of 2 percent daily for two weeks
[14] = 2 ml of 2 percent daily, value before the two weeks treatment
[15] = KHCA 0.5% group, Hyper-cholesterolemia (Day 10), before treatment
[16] = KHCA 0.5% group, Start (before diet and treatment)
[17] = KHCA 0.5%, 2 weeks oral, End (Day 24)
[18] = KHCA 1.0% group, Hyper-cholesterolemia (Day 10), before treatment
[19] = KHCA 1.0% group, Start (before diet and treatment)
[20] = KHCA 1.0%, 2 weeks oral, End (Day 24)
[21] = KHCA 2.0% group, Hyper-cholesterolemia (Day 10), before treatment
[22] = KHCA 2.0% group, Start (before diet and treatment)
[23] = KHCA 2.0%, 2 weeks oral, End (Day 24)
[24] = KHCA administration versus control group

## O=C([O-])CC(O)(C(=O)[O-])C(O)C(=O)[O-].[K+].[K+].[K+] (centres unmarked) [KHCA, Potassium HCA Salt]
[1]; 0.5% K-HCA
  total cholesterol reduction (lowering) in comparison to the starting condition: 1.6 mg·dL
[1]; [4]
  HDL, Average: 49.2 mg/dL
  LDL, Average: 64.6 mg/dL
  Total cholesterol, Average: 79.2 mg/dL
  HDL: 40 mg/dL and 59 mg/dL and 43 mg/dL and 53 mg/dL and 51 mg/dL
  LDL: 59 mg/dL and 77 mg/dL and 71 mg/dL and 60 mg/dL and 56 mg/dL
  Total cholesterol: 82 mg/dL and 80 mg/dL and 76 mg/dL and 79 mg/dL (2×)
[1]; [5]
  HDL, Average: 31 mg/dL
  LDL, Average: 63.2 mg/dL
  Total cholesterol, Average: 81 mg/dL
  HDL: 27 mg/dL and 28 mg/dL and 39 mg/dL and 31 mg/dL and 30 mg/dL
  LDL: 60 mg/dL (2×) and 70 mg/dL and 67 mg/dL and 59 mg/dL
  Total cholesterol: 83 mg/dL and 84 mg/dL and 76 mg/dL and 80 mg/dL and 82 mg/dL
[1]; [6]
  HDL, Average: 39 mg/dL
  LDL, Average: 28.8 mg/dL
  Total cholesterol, Average: 72.6 mg/dL
  HDL: 37 mg/dL and 40 mg/dL and 41 mg/dL and 39 mg/dL and 38 mg/dL
  LDL: 31 mg/dL and 28 mg/dL and 33 mg/dL and 27 mg/dL and 25 mg/dL
  Total cholesterol: 74 mg/dL and 73 mg/dL and 69 mg/dL and 72 mg/dL and 75 mg/dL
[1]; [7]
  HDL, Average: 53 mg/dL
  LDL, Average: 58.2 mg/dL
  Total cholesterol, Average: 71 mg/dL
  HDL: 58 mg/dL and 60 mg/dL and 49 mg/dL and 46 mg/dL and 52 mg/dL
  LDL: 69 mg/dL and 51 mg/dL and 48 mg/dL and 60 mg/dL and 63 mg/dL
  Total cholesterol: 73 mg/dL and 71 mg/dL and 75 mg/dL and 69 mg/dL and 67 mg/dL
[1]; [8]
  HDL, Average: 31.8 mg/dL
  LDL, Average: 60.4 mg/dL
  Total cholesterol, Average: 79.6 mg/dL
  HDL: 28 mg/dL and 37 mg/dL (2×) and 30 mg/dL and 27 mg/dL
  LDL: 67 mg/dL and 59 mg/dL and 54 mg/dL and 60 mg/dL and 62 mg/dL
  Total cholesterol: 75 mg/dL and 82 mg/dL and 84 mg/dL and 80 mg/dL and 77 mg/dL
[1]; [9]
  HDL, Average: 39 mg/dL
  LDL, Average: 29 mg/dL
  Total cholesterol, Average: 72.6 mg/dL
  HDL: 36 mg/dL and 40 mg/dL and 43 mg/dL and 39 mg/dL and 37 mg/dL
  LDL: 28 mg/dL and 29 mg/dL and 33 mg/dL and 30 mg/dL and 25 mg/dL
  Total cholesterol: 69 mg/dL and 74 mg/dL and 72 mg/dL and 75 mg/dL and 73 mg/dL
[1]; 1.0% KHCA
  total cholesterol reduction (lowering) in comparison to the starting condition: 2.06 mg·dL
[1]; 2.0% (4.12 mg) KHCA daily, control group decreased
  change of HDL concentration in blood serum: increased
[1]; 2.0% KHCA (4.12 mg daily)
  total cholesterol reduction (lowering) in comparison to the starting condition: 12.2 mg·dL
[1]; [10]
  HDL, Average: 63.4 mg/dL
  LDL, Average: 50 mg/dL
  Total cholesterol, Average: 61.2 mg/dL
  HDL: 64 mg/dL and 61 mg/dL and 67 mg/dL and 59 mg/dL and 66 mg/dL
  LDL: 61 mg/dL and 46 mg/dL and 50 mg/dL and 44 mg/dL and 49 mg/dL
  Total cholesterol: 59 mg/dL and 66 mg/dL and 52 mg/dL and 58 mg/dL and 71 mg/dL
[1]; [11]
  HDL, Average: 34.6 mg/dL
  LDL, Average: 63.2 mg/dL
  Total cholesterol, Average: 82 mg/dL
  HDL: 31 mg/dL and 37 mg/dL and 40 mg/dL and 33 mg/dL and 32 mg/dL
  LDL: 69 mg/dL and 61 mg/dL and 59 mg/dL and 60 mg/dL and 67 mg/dL
  Total cholesterol: 83 mg/dL and 85 mg/dL and 81 mg/dL and 79 mg/dL and 82 mg/dL
[1]; [12]
  HDL, Average: 38.8 mg/dL
  LDL, Average: 29.8 mg/dL
  Total cholesterol, Average: 73.4 mg/dL
  HDL: 38 mg/dL and 40 mg/dL and 41 mg/dL and 36 mg/dL and 39 mg/dL
  LDL: 31 mg/dL and 29 mg/dL and 26 mg/dL and 33 mg/dL and 30 mg/dL
  Total cholesterol: 75 mg/dL and 70 mg/dL and 72 mg/dL and 73 mg/dL and 77 mg/dL
[1]; [13]
  HDL level, after treatment: 63 mg/dL
  serum cholesterol LDL level, after treatment: 50 mg·dL
[1]; [14]
  HDL level, before treatment: 35 mg/dL
  serum cholesterol LDL level, before treatment: 63 mg/dL
[1]; [15]
  LDL/HDL Ratio: 2.04
  Total Cholesterol/HDL: 2.61
[1]; [16]
  LDL/HDL Ratio: 0.74
  Total Cholesterol/HDL: 1.86
[1]; [17]
  LDL/HDL Ratio: 1.31
  Total Cholesterol/HDL: 1.61
[1]; [18]
  LDL/HDL Ratio: 1.9
  Total Cholesterol/HDL: 2.50
[1]; [19]
  LDL/HDL Ratio: 0.74
  Total Cholesterol/HDL: 1.86
[1]; [20]
  LDL/HDL Ratio: 1.1
  Total Cholesterol/HDL: 1.34
[1]; [21]
  LDL/HDL Ratio: 1.83
  Total Cholesterol/HDL: 2.36
[1]; [22]
  LDL/HDL Ratio: 0.77
  Total Cholesterol/HDL: 1.89
[1]; [23]
  LDL/HDL Ratio: 0.79
  Total Cholesterol/HDL: 0.97
[2]; 0.5% KHCA (1.03 mg/day oral), At Hypercholesterolemia, before treatment
  Body weight: 202.4 grams
[2]; 0.5% KHCA (1.03 mg/day oral), End of Experiment, after 2 weeks treatment
  Body weight: 199.5 grams
[2]; 0.5% KHCA (1.03 mg/day oral), Start of Experiment, before cholesterol diet and treatment
  Body weight: 162.8 grams
[2]; 1.0% KHCA (2.06 mg/day oral), At Hypercholesterolemia, before treatment
  Body weight: 195.0 grams
[2]; 1.0% KHCA (2.06 mg/day oral), End of Experiment, after 2 weeks treatment
  Body weight: 193.2 grams
[2]; 1.0% KHCA (2.06 mg/day oral), Start of Experiment, before cholesterol diet and treatment
  Body weight: 157.7 grams
[2]; 2.0% KHCA (4.12 mg/day oral), At Hypercholesterolemia, before treatment
  Body weight: 192.7 grams
[2]; 2.0% KHCA (4.12 mg/day oral), End of Experiment, after 2 weeks treatment
  Body weight: 183.7 grams
[2]; 2.0% KHCA (4.12 mg/day oral), Start of Experiment, before cholesterol diet and treatment
  Body weight: 166.9 grams
[2]; [13]
  effect on body weight: reduced body weight
[2]; [24]
  feces consistency: softer
  feed consumption: lower feed consumption
rats
  benefits with regard to insulin metabolism and blood pressure regulation: significant results

## O=C([O-])CC(O)(C(=O)[O-])C(O)C(=O)[O-].[K+].[Mg+2] (centres unmarked) [potassium-magnesium HCA, Potassium-Magnesium Hydroxycitrate Salt]
rats
  benefits with regard to insulin metabolism and blood pressure regulation: significant results

## Magnesium HCA
[3]
  increase in HDL: 8.5%
